Experimental data published in the supplement of paper PMC7806825.
± gives the standard deviation of the averaged measurements.

Test system: McpC ligand-binding domain (Salmonella Typhimurium SL1344)
Assay: protein melting temperature (Tm) in presence of compound (degrees C); higher = more thermal stabilisation (possible ligand binding)
Conditions: compound stock concentration: 10-20 mM, 2 uL in 10 uL reaction

Row | SMILES | protein melting temperature (Biolog plate: PM03B) | protein melting temperature (Biolog plate: PM01) | protein melting temperature (Biolog plate: PM05) | further results
1 | N[C@@H]1C(O)O[C@H](CO)[C@@H](O)[C@@H]1O (stereo partly drawn) [D-Mannosamine] | 44.6 |  |  | 
2 | OC[C@H]1OC(O)[C@@H](O)[C@@H](O)[C@@H]1O (stereo partly drawn) [D-Mannose] |  | 44.2 |  | 
3 | OC[C@H]1O[C@@](CO)(O[C@H]2O[C@H](CO)[C@@H](O)[C@H](O)[C@H]2O)[C@@H](O[C@H]2O[C@H](CO)[C@@H](O)[C@H](O)[C@H]2O)[C@@H]1O [D-Melezitose] |  |  |  | protein melting temperature (Biolog plate: PM02A): 44.5
4 | OC[C@H]1O[C@H](OC[C@H]2OC(O)[C@H](O)[C@@H](O)[C@@H]2O)[C@H](O)[C@@H](O)[C@H]1O (stereo partly drawn) [D-Melibiose] |  | 44.7 |  | 
5 | CSCC[C@@H](N)C(=O)O [D-Methionine] |  |  |  | protein melting temperature (Biolog plate: PM04A): 43.7
6 | CC(C)(CO)[C@@H](O)C(=O)NCCC(=O)O [D-Pantothenic acid] |  |  | 43.7 | 
7 | OCC1(O)OC[C@@H](O)[C@@H](O)[C@H]1O (stereo partly drawn) [D-Psicose] |  | 45 |  | 
8 | OC[C@H]1O[C@H](OC[C@H]2O[C@H](O[C@]3(CO)O[C@H](CO)[C@@H](O)[C@@H]3O)[C@H](O)[C@@H](O)[C@@H]2O)[C@H](O)[C@@H](O)[C@H]1O [D-Raffinose] |  |  |  | protein melting temperature (Biolog plate: PM02A): 44.4
9 | O=C1O[C@H](CO)[C@@H](O)[C@H]1O [D-Ribono-1,4-Lactone] |  |  |  | protein melting temperature (Biolog plate: PM02A): 44.4
10 | O[C@@H]1[C@H](O)[C@H](O)CO[C@H]1O [D-Ribose] |  | 44.2 |  | 
11 | O=C(O)[C@@H](O)[C@@H](O)[C@H](O)[C@@H](O)C(=O)O [D-Saccharic acid] |  | 44.4 |  | 
12 | OC[C@@H](O)[C@@H](O)[C@H](O)[C@@H](O)CO [D-Sorbitol] |  | 45 |  | 
13 | O=C(CO)[C@@H](O)[C@@H](O)[C@H](O)CO [D-Tagatose] |  |  |  | protein melting temperature (Biolog plate: PM02A): 44
14 | C[C@H](O)[C@@H](N)C(=O)O [D-Threonine] |  | 44 |  | 
15 | OC[C@H]1O[C@H](O[C@H]2O[C@H](CO)[C@@H](O)[C@H](O)[C@H]2O)[C@H](O)[C@@H](O)[C@@H]1O [D-Trehalose] |  | 43.9 |  | 
16 | CC(C)[C@@H](N)C(=O)O [D-Valine] | 44.7 |  |  | 
17 | CC(=O)N(O)CCCCCNC(=O)CCC(=O)N(O)CCCCCNC(=O)CCC(=O)N(O)CCCCCN [Deferoxamine] |  |  | 44.4 | 
18 | OC[C@H]1OC(O[C@H]2[C@H](O)[C@@H](O)C(O[C@H]3[C@H](O)[C@@H](O)[C@@H](O)O[C@@H]3CO)O[C@@H]2CO)[C@H](O)[C@@H](O)[C@@H]1O (some centres undefined) [Dextrin] |  |  |  | protein melting temperature (Biolog plate: PM02A): 44
19 | OP(O)(=S)S [Dithiophosphate] |  |  |  | protein melting temperature (Biolog plate: PM04A): 43.6 ± 0.59
20 | OC[C@@H](O)[C@H](O)[C@H](O)[C@@H](O)CO [Dulcitol] |  | 44.6 |  | 
21 | NCCO [Ethanolamine] | 44.4 |  |  | 
22 | CCN [Ethylamine] | 44.7 |  |  | 
23 | Nc1nc(=O)c2nc(CNc3ccc(C(=O)N[C@@H](CCC(=O)O)C(=O)O)cc3)cnc2[nH]1 [Folic acid] |  |  | 43.8 | 
24 | NC=O [Formamide] | 45.6 |  |  | 
25 | O=C(O)/C=C/C(=O)O [Fumaric acid] |  | 44.6 |  | 
26 | O=C[C@H](O)[C@@H](O)[C@H](O)[C@H](O)CO[C@@H]1O[C@H](CO)[C@@H](O)[C@H](O)[C@H]1O [Gentiobiose] |  |  |  | protein melting temperature (Biolog plate: PM02A): 44.5

Row | SMILES | protein melting temperature (Biolog plate: PM03B) | protein melting temperature (Biolog plate: PM01) | protein melting temperature (Biolog plate: PM05) | further results
27 | NC(=O)[C@H]1O[C@@H](O)[C@H](O)[C@@H](O)[C@@H]1O [Glucuronamide] | 45.7 | 44.9 |  | 
28 | N[C@@H](CCC(=O)N[C@@H](CS)C(=O)NCC(=O)O)C(=O)O [Glutathione] |  |  | 43.6 | protein melting temperature (Biolog plate: PM04A): 43.7
29 | NCC(=O)N[C@@H](CC(N)=O)C(=O)O [Gly-Asn] | 44.5 |  |  | 
30 | NCC(=O)N[C@@H](CC(=O)O)C(=O)O [Gly-Asp] |  | 44.4 |  | 
31 | NCC(=O)N[C@@H](CCC(N)=O)C(=O)O [Gly-Gln] | 45.2 |  |  | 
32 | NCC(=O)N[C@@H](CCC(=O)O)C(=O)O [Gly-Glu] | 45.1 | 44.9 |  | 
33 | CSCC[C@H](NC(=O)CN)C(=O)O [Gly-Met] | 45.2 |  |  | protein melting temperature (Biolog plate: PM04A): 43.8
34 | NCC(=O)N1CCC[C@H]1C(=O)O [Gly-Pro] |  | 44.2 |  | 
35 | NCC(=O)O [Glycine] | 44.8 |  | 43.9 | protein melting temperature (Biolog plate: PM02A): 44.4
36 | OC[C@H]1O[C@H](OC[C@H]2O[C@H](O[C@H]3[C@H](O)[C@@H](O)[C@@H](O)O[C@@H]3CO)[C@H](O)[C@@H](O)[C@@H]2O[C@H]2O[C@H](CO)[C@@H](O)[C@H](O)[C@H]2O)[C@H](O)[C@@H](O)[C@@H]1O [Glycogen] |  |  |  | protein melting temperature (Biolog plate: PM02A): 44.8
37 | Nc1nc2[nH]cnc2c(=O)[nH]1 [Guanine] | 44.7 |  | 44.4 | 
38 | Nc1nc2c(ncn2[C@@H]2O[C@H](CO)[C@@H](O)[C@H]2OP(=O)(O)O)c(=O)[nH]1 [Guanosine 2`-Monophosphate] |  |  |  | protein melting temperature (Biolog plate: PM04A): 44
39 | Nc1nc2c(ncn2[C@@H]2O[C@H](CO)[C@@H](OP(=O)(O)O)[C@H]2O)c(=O)[nH]1 [Guanosine 3`-Monophosphate] |  |  |  | protein melting temperature (Biolog plate: PM04A): 43.9
40 | Nc1nc2c(ncn2[C@@H]2O[C@H](COP(=O)(O)O)[C@@H](O)[C@H]2O)c(=O)[nH]1 [Guanosine 5`-Monophosphate] |  |  |  | protein melting temperature (Biolog plate: PM04A): 43.9
41 | Nc1nc2c(ncn2[C@@H]2O[C@H](CO)[C@@H](O)[C@H]2O)c(=O)[nH]1 [Guanosine] | 45.5 |  | 44.5 | 
42 | NCCc1c[nH]cn1 [Histamine] | 45.1 |  |  | 
43 | O=C(O)[C@@H]1C[C@@H](O)CN1 [Hydroxy-L-Proline] |  |  | 43.8 | protein melting temperature (Biolog plate: PM02A): 44.2
44 | O=PO [Hypophosphite] |  |  |  | protein melting temperature (Biolog plate: PM04A): 44.1
45 | NCCS(=O)O [Hypotaurine] |  |  |  | protein melting temperature (Biolog plate: PM04A): 44.5
46 | O=c1[nH]cnc2nc[nH]c12 [Hypoxanthine] |  |  | 44 | 
47 | O=c1[nH]cnc2c1ncn2[C@@H]1O[C@H](CO)[C@@H](O)[C@H]1O [Inosine] | 44.6 | 44.4 | 44.6 | 
48 | C[C@H](N)C(=O)O [L-Alanine] | 45.6 | 44.8 | 44.9 | 
49 | O[C@@H]1[C@@H](O)[C@@H](O)CO[C@H]1O [L-Arabinose] |  | 44.5 |  | 
50 | OC[C@H](O)C(O)[C@@H](O)CO [L-Arabitol] |  |  |  | protein melting temperature (Biolog plate: PM02A): 43.8
51 | N=C(N)NCCC[C@H](N)C(=O)O [L-Arginine] | 45.4 |  | 44.6 | protein melting temperature (Biolog plate: PM02A): 44.2
52 | NC(=O)C[C@H](N)C(=O)O [L-Asparagine] | 45.7 | 44.4 | 44.5 | 

Row | SMILES | protein melting temperature (Biolog plate: PM03B) | protein melting temperature (Biolog plate: PM01) | protein melting temperature (Biolog plate: PM05) | further results
53 | N[C@@H](CC(=O)O)C(=O)O [L-Aspartic acid] | 45.4 | 44.5 | 44.2 | 
54 | NC(=O)NCCC[C@H](N)C(=O)O [L-Citrulline] | 44.8 |  | 43.8 | 
55 | N[C@@H](CS(=O)(=O)O)C(=O)O [L-Cysteic acid] |  |  |  | protein melting temperature (Biolog plate: PM04A): 43.1
56 | N[C@@H](CS(=O)O)C(=O)O [L-Cysteine Sulfinic acid] |  |  |  | protein melting temperature (Biolog plate: PM04A): 43
57 | N[C@@H](CSCSC[C@H](N)C(=O)O)C(=O)O [L-Djenkolic acid] |  |  |  | protein melting temperature (Biolog plate: PM04A): 44.6
58 | C[C@H](O)[C@@H](O)[C@@H](O)[C@H](O)C=O [L-Fucose] |  | 44.7 |  | 
59 | OC[C@@H]1OC(O)[C@@H](O)[C@H](O)[C@H]1O (stereo partly drawn) [L-Glucose] |  |  |  | protein melting temperature (Biolog plate: PM02A): 44.4
60 | N[C@@H](CCC(=O)O)C(=O)O [L-Glutamic acid] | 44.8 | 44.2 | 44.2 | 
61 | NC(=O)CC[C@H](N)C(=O)O [L-Glutamine] | 45.1 | 44 | 44.9 | 
62 | N[C@@H](Cc1c[nH]cn1)C(=O)O [L-Histidine] | 44.8 |  | 44.6 | protein melting temperature (Biolog plate: PM02A): 44.7
63 | N[C@H]1CCOC1=O [L-Homoserine Lactone] |  |  | 44.5 | 
64 | N[C@@H](CCO)C(=O)O [L-Homoserine] | 44.8 |  |  | protein melting temperature (Biolog plate: PM02A): 44.7
65 | CC[C@H](C)[C@H](N)C(=O)O [L-Isoleucine] | 44.8 |  | 44.7 | protein melting temperature (Biolog plate: PM02A): 44.3
66 | CC(C)C[C@H](N)C(=O)O [L-Leucine] | 44.8 |  | 44.6 | protein melting temperature (Biolog plate: PM02A): 44.3
67 | O=C[C@H](O)[C@H](O)[C@@H](O)CO [L-Lyxose] |  | 44.7 |  | 
68 | O=C(O)C[C@H](O)C(=O)O [L-Malic acid] |  | 44.3 |  | 
69 | CS(=O)(=O)CC[C@H](N)C(=O)O [L-Methionine Sulfone] |  |  |  | protein melting temperature (Biolog plate: PM04A): 43.9
70 | C[S+]([O-])CC[C@H](N)C(=O)O (stereo partly drawn) [L-Methionine Sulfoxide] |  |  |  | protein melting temperature (Biolog plate: PM04A): 43.6
71 | CSCC[C@H](N)C(=O)O [L-Methionine] | 44.7 |  | 44.4 | protein melting temperature (Biolog plate: PM02A): 43.5; protein melting temperature (Biolog plate: PM04A): 43.9
72 | NCCC[C@H](N)C(=O)O [L-Ornithine] | 44.4 |  | 44.7 | protein melting temperature (Biolog plate: PM02A): 44.4
73 | N[C@@H](Cc1ccccc1)C(=O)O [L-Phenylalanine] | 44.8 |  | 43.8 | protein melting temperature (Biolog plate: PM02A): 44.5
74 | O=C(O)[C@@H]1CCCN1 [L-Proline] | 45.1 | 44.3 | 44.2 | 
75 | C[C@@H](O)[C@H](N)C(=O)O [L-Threonine] | 44.8 | 44 | 43.8 | 
76 | N[C@@H](Cc1c[nH]c2ccccc12)C(=O)O [L-Tryptophan] | 44.4 |  | 44 | 
